In patent US6472418B1, “Non-peptide NK1 receptors antagonists” (Warner-Lambert Company, priority 1998, dated 2002):

Assays:
[1] = molecular target: T1, Human NK1 Receptor (Homo sapiens, UniProt P25103); assay: In Vitro Human NK1 Receptor Binding Assay ([125I]Bolton-Hunter substance P displacement, IM9 cells); conditions: Human lymphoma IM9 cells, [125I]Bolton-Hunter substance P (0.05-0.1 nM), 50 min at 21° C.; Table 1; read-out: NK1 binding IC50
T1 construct: endogenous in cells; host or cells: Human lymphoma IM9 cells (whole cells)
T1 sequence (P25103 whole entry): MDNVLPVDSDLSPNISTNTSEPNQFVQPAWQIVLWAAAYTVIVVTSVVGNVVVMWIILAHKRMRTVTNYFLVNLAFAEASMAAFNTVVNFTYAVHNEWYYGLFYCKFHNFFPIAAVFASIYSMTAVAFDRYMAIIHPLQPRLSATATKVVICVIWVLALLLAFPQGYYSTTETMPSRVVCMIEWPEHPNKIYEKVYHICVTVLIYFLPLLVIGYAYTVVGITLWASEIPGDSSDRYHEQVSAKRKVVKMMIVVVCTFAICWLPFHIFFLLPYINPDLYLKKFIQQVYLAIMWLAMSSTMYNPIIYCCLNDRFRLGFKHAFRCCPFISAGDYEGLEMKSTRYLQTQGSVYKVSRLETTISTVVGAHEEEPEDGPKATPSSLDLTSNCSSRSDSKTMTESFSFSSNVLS
Method in brief: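 Test compounds competed with 0.05-0.1 nM [125I]Bolton-Hunter substance P for binding to intact IM9 cells over 50 min at 21° C, pH 7.4 buffer with MnCl2 and peptidase inhibitors. […] [Sar9, Met(O2)11] substance P gave non-specific binding. Bound counts were measured after filtration and fitted iteratively.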

Row | Compound | melting point | IC50 [1]
1 | CC(NC(=O)[C@@](C)(Cc1c[nH]c2ccccc12)NCc1cc2ccccc2o1)c1ccn(C)c1 (stereo in doubt) [Example 2, 2-[(Benzofuran-2-ylmethyl)-amino]-3-(1H-indol-3-yl)-2-methyl-N-[1-(1-methyl-1H-pyrrol-3-yl)-ethyl]-propionamide, [R-(R*,R*)] and [R-(R*,S*)]] | 53 to 57 °C | 23 nM
2 | C[C@](Cc1c[nH]c2ccccc12)(NCc1cc2ccccc2o1)C(=O)NCc1cccc(O)c1 [Example 5, 2-[(Benzofuran-2-ylmethyl)-amino]-N-(3-hydroxy-benzyl)-3-(1H-indol-3-yl)-2-methyl-propionamide, R] | 60 to 69 °C | 295 nM
3 | C[C@H](NC(=O)[C@@H](Cc1c[nH]c2ccccc12)NCc1cc2ccccc2s1)c1ccccc1 [Example 10, 2-[(Benzo[b]thiophen-2-ylmethyl)-amino]-3-(1H-indol-3-yl)-N-(1-phenyl-ethyl)-propionamide] | 102 to 108 °C | 51 nM

The next lines start with the values.

Row | melting point | IC50 [1] | Compound
4 | 57 to 62 °C | 591 nM | CC(C)(NC(=O)[C@@](C)(Cc1c[nH]c2ccccc12)NCc1cc2ccccc2o1)c1ccccc1 [Example 1, 2-[(Benzofuran-2-ylmethyl)-amino]-3-(1H-indol-3-yl)-2-methyl-N-(1-methyl-1-phenyl-ethyl)-propionamide, (R)]
5 | 130 to 134 °C | 1210 nM | CN(C)C[C@H](NC(=O)[C@@](C)(Cc1c[nH]c2ccccc12)NCc1cc2ccccc2o1)c1ccccc1 [Example 4, 2-[(Benzofuran-2-ylmethyl)-amino]-N-(2-dimethylamino-1-phenyl-ethyl)-3-(1H-indol-3-yl)-2-methyl-propionamide, (R,R)]
